Patent US6121315A, “Oral compositions containing a zinc compound” (priority 1999, dated 2000)
Several values for one entry are separate records, joined by “and”; a condition that tells them apart may be missing. Identical values can stand only once. Like-named read-outs stand apart in the source and are kept apart here.

Legend:
[1] = tested on: Fusobacterium nucleatum (ATCC 10953); type: cell-based
Source text: The objective of this study was to evaluate the use of pure cultures or oral malodor-causing bacteria as the source of malodor instead of human subjects. Cultures of Fusobacterium nucleatum, Veillonella parvula and Prevotella sp. are well recognized producers of VSC's due to their ability to digest amino acids including cysteine and methionine. The most widely investigated of these is F. nucleatum. Therefore, this organism was selected for this in vitro test. Evaluating a finished oral care composition spiked with Fusobacterium was considered, however, the detector in the Halimeter was adversely affected by alcohols. […] Therefore, the following methodology was applied to screen the effectiveness of various zinc salt solutions in reducing VSC's: Fusobacterium nucleatum (ATCC #10953) was transferred twice from frozen stock cultures and maintained by daily transfers in […]' broth (Difco or BBL). […] The tube is a scaled down version of a Kontes #181000 adapter inlet with hose connectors which is coupled to a 18×100 mm glass tube fitted with a tapered ground fitting. After one minute the Halimeter was connected to a port on the reaction tube and allowed to sample the VSC's in the solution via the vacuum pump. The peak reading recorded by the Halimeter was taken as the VSC measurement. The level of inoculum selected was determined by ppb of VSC's generated in inoculated water alone. […] Three different zinc salt solutions, ZnCl2, ZnSO4, and ZnO, were evaluated. […] Water was used as the control. (Table 1) The heading D% refers to the difference between the measurement of VSCs in ppb using a pure water solution and the measurement of VSCs in ppb using varying concentrations of zinc salts. Each experiment was run in triplicate.

[2] = cited from earlier work
[3] = 1 hour after using 31 or 18 mM; cited from earlier work
[4] = Overnight malodor study: morning mouth air VSC (H2 S, CH3 SH) by gas chromatography; type: in vivo, human
Protocol: Subjects participating in this study maintained their normal nightly oral hygiene procedure for the duration of the study. In addition, all participants were asked to refrain from eating odoriferous foods at least 24 hours prior to their appointment for measurement of VSC's.
Subjects reported directly to the laboratory each morning for measurement of mouth air VSC levels. This measurement was the baseline (pretreatment) level of VSC. Selection for the study was based on morning levels of H2 S above 30 parts per billion (ppb) and CH3 SH above 20 ppb. Subjects fulfilling this criteria received a treatment to use that evening. Immediately before retiring to bed, the subjects rinsed vigorously for 30 seconds using the assigned treatment. The following morning the subject returned to the lab for analysis of mouth air VSC. This measurement was the post-treatment value. These treatments were assigned in a random, crossover design experiment.
Levels of VSC in subject's mouth air were determined using a gas chromatography system equipped with a flame photometric detector. […] Analysis of variance tested for significant treatment differences.
Differences between treatment were tested by analysis of variance using post minus pretreatment levels of mouth air VSCs.

[5] = Adherence of zinc to simulated dental plaque on steel wires, fluorimetric with 8-hydroxyquinoline
Source text: To determine how readily zinc adheres to dental plaque, the adherence of zinc to simulated plaque grown on steel wires was fluorimetrically measured. Increasing concentrations of zinc solutions were used in the test oral compositions.
After the simulated plaque is developed on the wires, it is then immersed in the oral composition to be tested, which is followed by a rinse. Thereafter, the plaque coated wires are immersed in a 0.01% solution of 8-hydroxyquinoline prepared by dissolving the 8-hydroxyquinoline in 100% ethanol. Twenty (20) ml of this solution were then brought q.s. up to the correct concentration.

[6] = 0.25% zinc chloride, significant reduction from Baseline
[7] = individual subjects 1-13 in table order, morning after 20 ml of 0.25% zinc chloride, 30 second rinse at bedtime
[8] = individual subjects 1-13 in table order, pretreatment, zinc chloride arm
[9] = mean of 13 subjects, pretreatment, zinc chloride arm

| Compound | % D, difference from water in VSC ([1]; 0.01%, first run) [%] | % D, difference from water in VSC ([1]; 0.01%, second run) [%] | % D, difference from water in VSC ([1]; 0.01%, third run) [%] | % D, difference from water in VSC ([1]; 0.05%, first run) [%] | % D, difference from water in VSC ([1]; 0.05%, second run) [%] | % D, difference from water in VSC ([1]; 0.05%, third run) [%] | % D, difference from water in VSC ([1]; 0.1%, first run) [%] | % D, difference from water in VSC ([1]; 0.1%, second run) [%] | % D, difference from water in VSC ([1]; 0.1%, third run) [%] | % D, difference from water in VSC ([1]; 0.2%, first run) [%] | % D, difference from water in VSC ([1]; 0.2%, second run) [%] | % D, difference from water in VSC ([1]; 0.2%, third run) [%] | % D, difference from water in VSC ([1]; 0.4%, first run) [%] | % D, difference from water in VSC ([1]; 0.4%, second run) [%] | % D, difference from water in VSC ([1]; 0.4%, third run) [%] | other results |
| --- | --- | --- | --- | --- | --- | --- | --- | --- | --- | --- | --- | --- | --- | --- | --- | --- |
| [O]=[Zn] [ZnO, zinc oxide] | -53.7 | -54.9 | -40.0 | -48.7 | -51.8 | -37.5 | -58.2 | -57.6 | -42.1 | -59.4 | -63.5 | -47.9 | -60.2 | -70.5 | -54.1 | – |
| CC(C)[C@@H]1CC[C@@H](C)C[C@H]1OC(=O)CCC(=O)O [monomenthyl succinate] | – | – | – | – | – | – | – | – | – | – | – | – | – | – | – | solubility in water [2]: sparingly soluble; solubility in oil ([2]; relative to water): more soluble |
| O=S(=O)([O-])[O-].[Zn+2] [ZnSO4, zinc sulfate] | -52.0 | -67.7 | -38.7 | -53.6 | -51.3 | -42.5 | -54.7 | -58.6 | -42.4 | -58.1 | -67.4 | -48.1 | -65.0 | -58.2 | -51.0 | – |
| O=S(=O)([O-])c1ccc(O)cc1.O=S(=O)([O-])c1ccc(O)cc1.[Zn+2] [zinc phenolsuphonate] | – | – | – | – | – | – | – | – | – | – | – | – | – | – | – | oral zinc concentration [3]: markedly increased |
| [Cl-].[Cl-].[Zn+2] [zinc] | – | – | – | – | – | – | – | – | – | – | – | – | – | – | – | levels of CH3 SH and H2 S compared to baseline levels ([4]; overnight, morning breath, result in words): significantly reduced |
| [Cl-].[Cl-].[Zn+2] [ZnCl2, zinc chloride] | -47.4 | -58.3 | -37.0 | -53.0 | -57.5 | -40.0 | -53.8 | -54.6 | -43.1 | -59.8 | -60.4 | -47.9 | -63.2 | -58.9 | -47.4 | CH3 SH, Probability (p), t-test for differences from baseline [4, 6]: .0209; H2 S, Probability (p), t-test for differences from baseline [4, 6]: .0074; CH3 SH levels, Post [4, 7]: 50 ppb and 20 ppb and 63 ppb and 176 ppb and 41 ppb and 35 ppb and 29 ppb and 25 ppb and 133 ppb and 47 ppb and 16 ppb; H2 S levels, Post [4, 7]: 41 ppb and 22 ppb and 162 ppb and 268 ppb and 129 ppb and 106 ppb and 35 ppb and 318 ppb and 32 ppb and 94 ppb and 17 ppb and 97 ppb; CH3 SH levels, Baseline [4, 8]: 173 ppb and 46 ppb and 358 ppb and 115 ppb and 249 ppb and 61 ppb and 51 ppb and 99 ppb and 170 ppb and 217 ppb and 44 ppb and 59 ppb and 34 ppb; H2 S levels, Baseline [4, 8]: 344 ppb and 53 ppb and 522 ppb and 204 ppb and 644 ppb and 310 ppb and 91 ppb and 509 ppb and 191 ppb and 175 ppb and 81 ppb and 110 ppb and 170 ppb; CH3 SH levels, Post, mean (x) ([4]; mean of 13 subjects, morning after 20 ml of 0.25% zinc chloride, baseline mean 129, water 76 to 65): 57 ppb; H2 S levels, Post, mean (x) ([4]; mean of 13 subjects, morning after 20 ml of 0.25% zinc chloride, baseline mean 262, water 164 to 113): 114 ppb; CH3 SH levels, Baseline, mean (x) [4, 9]: 129 ppb; H2 S levels, Baseline, mean (x) [4, 9]: 262 ppb; development of VSC's overnight in vivo ([4]; summary statement in words): prevent or inhibit; amount of fluorescence in dental plaque vs concentration ([5]; ZnCl2 0.001%, 0.010%, 0.025%, 0.050% and 0.100%): the amount of fluorescence increased with increasing zinc concentration; lowest concentration at which fluorescence from zinc was detectable in dental plaque ([5]; base oral composition identical to Example 2, excitation 360 nm, emission 530 nm or 590 nm): 0.001 % (w/v) |
| CC1CCC(C(C)C)C(O)C1 (stereo not drawn) [Menthol, hexahydrothymol, reference compound] | – | – | – | – | – | – | – | – | – | – | – | – | – | – | – | solubility in alcohol [2]: highly soluble |
